According to the supplement of paper PMC11451515:

Test system: NOMO1
Test: cell viability relative to DMSO control; higher = less cytotoxic
Conditions: 48 h
Method in brief: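 NOMO1 or SEM cells were plated at 500 cells/well and P12-Ichikawa cells at 1000 cells/well in 1536-well plates (5 μl), after each leukemia line had been adapted for at least four passages in each medium. Pin dosing delivered library compounds in DMSO at 11 threefold concentrations, 47 μM to 0.79 nM. CellTiter-Glo One luminescence was read after 48 h at 37°C. Viability is reported as a per-plate percentage of DMSO wells, with cell-free wells as background.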

[1] = HPLM + 10% dialyzed FBS, 0.000781 µM
[2] = HPLM + 10% dialyzed FBS, 0.00234 µM
[3] = HPLM + 10% dialyzed FBS, 0.00702 µM
[4] = HPLM + 10% dialyzed FBS, 0.0211 µM
[5] = HPLM + 10% dialyzed FBS, 0.0632 µM
[6] = HPLM + 10% dialyzed FBS, 0.19 µM
[7] = HPLM + 10% dialyzed FBS, 0.569 µM
[8] = HPLM + 10% dialyzed FBS, 1.71 µM
[9] = HPLM + 10% dialyzed FBS, 5.12 µM
[10] = HPLM + 10% dialyzed FBS, 15.4 µM
[11] = HPLM + 10% dialyzed FBS, 46.1 µM
[12] = RPMI 5 mM glucose + 10% FBS, 0.000781 µM
[13] = RPMI 5 mM glucose + 10% FBS, 0.00234 µM
[14] = RPMI 5 mM glucose + 10% FBS, 0.00702 µM
[15] = RPMI 5 mM glucose + 10% FBS, 0.0211 µM
[16] = RPMI 5 mM glucose + 10% FBS, 0.0632 µM
[17] = RPMI 5 mM glucose + 10% FBS, 0.19 µM
[18] = RPMI 5 mM glucose + 10% FBS, 0.569 µM
[19] = RPMI 5 mM glucose + 10% FBS, 1.71 µM
[20] = RPMI 5 mM glucose + 10% FBS, 5.12 µM
[21] = RPMI 5 mM glucose + 10% FBS, 15.4 µM
[22] = RPMI 5 mM glucose + 10% FBS, 46.1 µM
[23] = RPMI 5 mM glucose + 10% dialyzed FBS, 0.000781 µM
[24] = RPMI 5 mM glucose + 10% dialyzed FBS, 0.00234 µM
[25] = RPMI 5 mM glucose + 10% dialyzed FBS, 0.00702 µM
[26] = RPMI 5 mM glucose + 10% dialyzed FBS, 0.0211 µM
[27] = RPMI 5 mM glucose + 10% dialyzed FBS, 0.0632 µM
[28] = RPMI 5 mM glucose + 10% dialyzed FBS, 0.19 µM
[29] = RPMI 5 mM glucose + 10% dialyzed FBS, 0.569 µM
[30] = RPMI 5 mM glucose + 10% dialyzed FBS, 1.71 µM
[31] = RPMI 5 mM glucose + 10% dialyzed FBS, 5.12 µM
[32] = RPMI 5 mM glucose + 10% dialyzed FBS, 15.4 µM
[33] = RPMI 5 mM glucose + 10% dialyzed FBS, 46.1 µM

| Compound | cell viability [1] [%] | cell viability [2] [%] | cell viability [3] [%] | cell viability [4] [%] | cell viability [5] [%] | cell viability [6] [%] | cell viability [7] [%] | cell viability [8] [%] | cell viability [9] [%] | cell viability [10] [%] | cell viability [11] [%] | cell viability [12] [%] | cell viability [13] [%] | cell viability [14] [%] | cell viability [15] [%] | cell viability [16] [%] | cell viability [17] [%] | cell viability [18] [%] | cell viability [19] [%] | cell viability [20] [%] | cell viability [21] [%] | cell viability [22] [%] | cell viability [23] [%] | cell viability [24] [%] | cell viability [25] [%] | cell viability [26] [%] | cell viability [27] [%] | cell viability [28] [%] | cell viability [29] [%] | cell viability [30] [%] | cell viability [31] [%] | cell viability [32] [%] | cell viability [33] [%] |
| --- | --- | --- | --- | --- | --- | --- | --- | --- | --- | --- | --- | --- | --- | --- | --- | --- | --- | --- | --- | --- | --- | --- | --- | --- | --- | --- | --- | --- | --- | --- | --- | --- | --- |
| O=C1c2c(O)ccc(O)c2C(=O)c2c(NCCNCCO)ccc(NCCNCCO)c21 | 95 | 113 | 127 | 131 | 120 | 124 | 29.3 | 92.4 | 27.3 | 24.3 | 5.26 | 102 | 102 | 107 | 108 | 100 | 105 | 18.5 | 110 | 18.2 | 17.2 | 4.37 | 107 | 113 | 108 | 113 | 112 | 103 | 53.2 | 107 | 20.3 | 27.1 | 3.81 |
| C/C=C1\C2C=C(C)CC1(N)c1ccc(=O)[nH]c1C2 (stereo not drawn) | 107 | 117 | 113 | 114 | 109 | 104 | 117 | 106 | 110 | 95.1 | 79.4 | 94.6 | 96.4 | 99.2 | 115 | 96.3 | 93.7 | 102 | 105 | 102 | 91 | 90.8 | 90.4 | 103 | 96.7 | 103 | 108 | 96.1 | 94.1 | 99.9 | 95 | 98.8 | 81 |
| C[C@@H]\1CC(=O)N\N=C1C2=CC=C(NN=C(C#N)C#N)C=C2 | 90.8 | 89.5 | 107 | 95.5 | 99.9 | 90.2 | 102 | 87.6 | 88.5 | 86.8 | 4.87 | 93.9 | 87.6 | 92.6 | 90.6 | 87.9 | 96.7 | 85.7 | 97.5 | 89.2 | 80 | 7.6 | 85.3 | 94.7 | 93.4 | 90.7 | 95.3 | 92.6 | 96.3 | 89 | 87.1 | 83.2 | 9.26 |
| COc1cc2ncnc(Nc3ccc(F)c(Cl)c3)c2cc1NC(=O)/C=C/CN1CCCCC1 | 92.2 | 105 | 114 | 102 | 108 | 118 | 81.9 | 81.8 | 72.1 | 65.6 | 41.5 | 86.4 | 93.7 | 91.1 | 86.3 | 98.4 | 84.9 | 89.6 | 88.4 | 89.1 | 91.7 | 75.5 | 95.7 | 97.7 | 93.6 | 85.4 | 91.3 | 96.6 | 85.1 | 95.2 | 78.3 | 65.6 | 72.9 |
| CC(C)C[C@H](NC(=O)[C@H](CCc1ccccc1)NC(=O)CN1CCOCC1)C(=O)N[C@@H](Cc1ccccc1)C(=O)N[C@@H](CC(C)C)C(=O)[C@@]1(C)CO1 | 94.7 | 95.3 | 103 | 99.4 | 7.57 | 8.63 | 5.74 | 4.23 | 1.47 | 0.357 | 0.4 | 77.8 | 88.9 | 90 | 83.9 | 6.13 | 6.37 | 4.68 | 3.7 | 2.13 | -0.195 | -0.384 | 90.9 | 93.3 | 98.5 | 92 | 8.53 | 8.08 | 5.45 | 3.98 | 2.7 | 0.526 | -0.204 |
| Cc1ccc([S+](=O)([O-])N[C@@H](Cc2ccccc2)C(=O)CCl)cc1 | 90.2 | 100 | 119 | 119 | 87.3 | 112 | 99.1 | 107 | 106 | 101 | 47.6 | 91.8 | 89.4 | 96 | 96.9 | 97.9 | 91.4 | 90.3 | 81 | 95.1 | 90.7 | 71.1 | 88.8 | 99.6 | 94.6 | 94.6 | 100 | 85.2 | 99.4 | 108 | 97.7 | 85.1 | 73.6 |
| Nc1ncnc2c1c(-c1cnc3[nH]ccc3c1)nn2C1CCCC1 |  |  |  |  |  |  |  |  |  |  |  | 108 | 120 | 141 | 135 | 119 | 114 | 112 | 93.5 | 66.7 | 54.4 | 45.4 | 106 | 119 | 103 | 109 | 131 | 100 | 104 | 81.7 | 61.8 | 52.8 | 45.8 |
| CC(C)NC[C@@H](C(=O)N1CCN(c2ncnc3c2[C@H](C)C[C@H]3O)CC1)c1ccc(Cl)cc1 | 115 | 115 | 119 | 117 | 109 | 103 | 109 | 110 | 79 | 51.4 | 18.6 | 109 | 121 | 109 | 100 | 111 | 109 | 107 | 105 | 102 | 73.8 | 47.8 | 124 | 89.2 | 115 | 100 | 103 | 100 | 108 | 87.8 | 81.6 | 57.6 | 43.1 |
